Laboratory results as given in patent US20050009903A1, “CB2-selective cannabinoid analogues” (priority 2003, published 2005).
Values joined by “and” are separate entries in the source; they are usually repeats but may differ in a detail not shown here. Identical values can stand only once. Like-named read-outs stand apart in the source and are kept apart here.

How the values were obtained:
[1] = target: CB2 receptor (Homo sapiens, UniProt P34972); experiment: CB2 assay: displacement of [3H]CP-55,940 from cloned human CB2 receptor preparation (transfected HEK 293 cells); assay type: binding; design: expressed in transfected cells; settings: for Ratio CB17CB2 / Ratio CB1/CB2: ratio of Ki values
[2] = target: T1, CB1 receptor (Rattus norvegicus, UniProt P20272); experiment: CB1 assay: displacement of [3H]CP-55,940 from rat brain membrane preparation; assay type: binding
T1 construct: from tissue; host or cells: rat whole brain, P2 membranes

[3] = cloned human CB2, read-out: Ki at CB2 receptor
[4] = rat brain membranes, read-out: Ki at CB1 receptor
[5] = Table 2, mean ± SEM, 3-(alkyl-1-naphthoyl)indoles, read-out: Ki CB2
[6] = Table 2, mean ± SEM, 3-(alkyl-1-naphthoyl)indoles, read-out: Ki CB1
[7] = Table 3, mean ± SEM, 3-(alkoxy-1-naphthoyl)indoles, the same values as Ki in nM, read-out: CB1 (receptor affinity)
[8] = Ki at CB2 receptor, cloned human CB2
[9] = Ki CB2, Table 1, mean ± SEM, cloned human CB2, [3H]CP 55,940
[10] = Table 1, mean ± SEM, cloned human CB2, [3H]CP 55,940, read-out: Ki CB2
[11] = Table 1, mean ± SEM, rat brain membranes, [3H]CP 55,940, read-out: Ki CB1

Sequence of CB2 receptor (P34972 whole entry): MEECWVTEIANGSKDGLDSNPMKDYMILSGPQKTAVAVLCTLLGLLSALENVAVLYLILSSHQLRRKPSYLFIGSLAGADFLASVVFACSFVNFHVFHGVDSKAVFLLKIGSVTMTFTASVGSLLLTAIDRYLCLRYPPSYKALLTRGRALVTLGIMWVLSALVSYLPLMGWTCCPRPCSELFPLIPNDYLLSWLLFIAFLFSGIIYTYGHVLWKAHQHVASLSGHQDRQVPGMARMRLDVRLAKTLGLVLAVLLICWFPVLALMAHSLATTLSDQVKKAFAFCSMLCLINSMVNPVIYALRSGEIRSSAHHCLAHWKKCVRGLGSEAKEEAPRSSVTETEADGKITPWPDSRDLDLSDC
T1 sequence (P20272 whole entry): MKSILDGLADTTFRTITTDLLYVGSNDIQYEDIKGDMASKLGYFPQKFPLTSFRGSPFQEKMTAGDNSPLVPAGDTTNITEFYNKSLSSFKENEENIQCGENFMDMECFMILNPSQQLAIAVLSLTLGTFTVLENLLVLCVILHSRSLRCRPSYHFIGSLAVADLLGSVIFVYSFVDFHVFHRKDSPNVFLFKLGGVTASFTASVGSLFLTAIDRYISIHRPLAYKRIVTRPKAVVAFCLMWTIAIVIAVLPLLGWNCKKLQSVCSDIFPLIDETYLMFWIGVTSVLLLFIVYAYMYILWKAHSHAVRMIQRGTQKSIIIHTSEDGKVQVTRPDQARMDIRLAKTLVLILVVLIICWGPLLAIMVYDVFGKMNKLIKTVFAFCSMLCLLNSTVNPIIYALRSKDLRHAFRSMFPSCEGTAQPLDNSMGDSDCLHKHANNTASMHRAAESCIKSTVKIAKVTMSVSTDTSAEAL

Row | SMILES | Ratio CB17CB2 ([1]; Table 2) | Ki [1, 3] | Ki [2, 4] | further results
1 | CCCn1c(C)c(C(=O)c2cccc3ccc(CC)cc23)c2ccccc21 [JWH-236, 2-Methyl-1-propyl-3-(7-ethyl-1-naphthoyl) indole] | 5.6 | 240 ± 63 nM | 1350 ± 204 nM | 
2 | CCCCCn1cc(C(=O)c2ccc(CCC)c3ccccc23)c2ccccc21 [JWH-182, 1-Pentyl-3-(4-propyl-1-naphthoyl)indole] | 0.6 |  |  | Ki [1, 5]: 1.1 ± 0.1 nM; Ki [2, 6]: 0.65 ± 0.03 nM
3 | CCCCCn1c(C)c(C(=O)c2ccc(CCCC)c3ccccc23)c2ccccc21 [JWH-242, 2-Methyl-1-pentyl-3-(4-butyl-1-naphthoyl)indole] | 6.5 | 6.5 ± 0.3 nM | 42 ± 9 nM | 
4 | CCCn1cc(C(=O)c2cccc3cc(OC)ccc23)c2ccccc21 [JWH-163, 1-Propyl-3-(6-methoxy-1-naphthoyl)indole] |  | 138 ± 12 nM |  | Ki [2, 7]: 2360 ± 215 nM
5 | CCCCCCC(C)(C)c1cc(OC)c2c(c1)OC(C)(C)[C@@H]1CC=C(CO)C[C@@H]21 [Compound 11f, 11-hydroxy-3-(1′,1′-dimethylheptyl)-1-methoxy-Δ^8-THC] |  |  |  | Ki [1, 8]: 1 nM and 1.2 nM; Ratio CB1/CB2 ([1]; Table 1): 14; Ki [2]: 14 ± 3 nM
6 | CCCCc1ccc(C(=O)c2cn(CCC)c3ccccc23)c2ccccc12 [JWH-239, 1-Propyl-3-(4-butyl-1-naphthoyl)indole] | 6.6 | 52 ± 6 nM | 342 ± 20 nM | 
7 | CC(C)(C)c1ccc2c(c1)OC(C)(C)C1CC=C(CO)CC21 (stereo not shown) [Compound 9a, 1-Deoxy-3-(1′,1′-dimethylethyl)-11-hydroxy-Δ^8-THC] |  | 18.1 ± 1.8 nM | 270 ± 58 nM | 
8 | CCCn1c(C)c(C(=O)c2ccc(C)c3ccccc23)c2ccccc21 [JWH-148, 2-Methyl-1-propyl-3-(4-methyl-1-naphthoyl)indole] | 8.8 | 14 ± 1 nM | 123 ± 8 nM | 
9 | CCCC(C)(C)c1cc(OC)c2c(c1)OC(C)(C)[C@@H]1CC=C(C)C[C@@H]21 [Compound 6c, 3-(1′,1′-Dimethylbutyl)-1-methoxy-Δ^8-THC] |  |  |  | Ki [1, 9]: 325 ± 70 nM; Ki [1, 8]: 1870 ± 867 nM; Ratio CB1/CB2 ([1]; Table 1): 31; Ki [2]: > 10000 nM
10 | CCCCCn1cc(C(=O)c2ccc(OCC)c3ccccc23)c2ccccc21 [JWH-258, 1-Pentyl-3-(4-ethoxy-1-naphthoyl)indole] |  | 10.5 ± 1.3 nM | 4.6 ± 0.6 nM | 
11 | CCCn1cc(C(=O)c2ccc(CC)c3ccccc23)c2ccccc21 [JWH-212, 1-Propyl-3-(4-ethyl-1-naphthoyl)indole] | 3.3 |  |  | Ki [1, 5]: 10 ± 1.2 nM; Ki [2, 6]: 33 ± 0.9 nM
12 | CCCCC(C)(C)c1cc(OC)c2c(c1)OC(C)(C)[C@@H]1CC=C(CO)C[C@@H]21 [Compound 11d, 1-Methoxy-3-(1′,1′-dimethylpentyl)-11-hydroxy-Δ^8-THC] |  |  |  | Ki [1, 9]: 4.4 ± 0.3 nM; Ki [1, 8]: 40 ± 6 nM; Ratio CB1/CB2 ([1]; Table 1): 9.1; Ki [2]: 40 ± 6 nM
13 | CCC(C)(C)c1cc(OC)c2c(c1)OC(C)(C)C1CC=C(C)CC21 (stereo not shown) [Compound 6b, 1-Methoxy-3-(1′,1′-dimethylpropyl)-Δ^8-THC] |  |  |  | Ki [1, 10]: 1400 ± 66 nM; Ratio CB1/CB2 ([1]; Table 1): 7.1; Ki [2, 11]: > 10000 nM
14 | CCCCCn1cc(C(=O)c2ccc(CC)c3ccccc23)c2ccccc21 [JWH-210, 1-Pentyl-3-(4-ethyl-1-naphthoyl)indole] | 0.67 |  | 0.46 ± 0.03 nM | Ki [1, 5]: 0.69 ± 0.01 nM
15 | CCCCCn1cc(C(=O)c2cccc3cc(OC)ccc23)c2ccccc21 [JWH-166, 1-Pentyl-3-(6-methoxy-1-naphthoyl)indole] |  | 1.9 ± 0.1 nM | 44 ± 10 nM | 
16 | CCCn1c(C)c(C(=O)c2cccc3ccc(OC)cc23)c2ccccc21 [JWH-160, 2-Methyl-1-propyl-3-(7-methoxy-1-naphthoyl)indole] |  |  | 1570 ± 201 nM | Ki ([1]; Table 3, mean ± SEM, 3-(alkoxy-1-naphthoyl)indoles, the same values as Ki in nM, read-out: CB2 (receptor affinity)): 441 ± 110 nM
17 | CCCn1cc(C(=O)c2cccc3ccc(C)cc23)c2ccccc21 [JWH-076, 1-Propyl-3-(7-methyl-1-naphthoyl)indole] | 2.0 | 106 ± 46 nM | 214 ± 11 nM | 
18 | CCCCCC(C)(C)c1ccc2c(c1)OC(C)(C)C1CC=C(CO)CC21 (stereo not shown) [Compound 9e, 1-Deoxy-3-(1′,1′-dimethylhexyl)-11-hydroxy-Δ^8-THC] |  | 0.52 nM | 1.8 ± 0.3 nM | Ratio CB1/CB2 ([1]; Table 1): 3.5
19 | CCCC(C)(C)c1cc(OC)c2c(c1)OC(C)(C)[C@@H]1CC=C(CO)C[C@@H]21 [Compound 11c, 1-Methoxy-3-(1′,1′-dimethylbutyl)-11-hydroxy-Δ^8-THC] |  |  |  | Ki [1, 9]: 28 ± 1 nM; Ratio CB1/CB2 ([1]; Table 1): 12; Ki [2]: 347 ± 34 nM
20 | CCCCCn1c(C)c(C(=O)c2cccc3cc(OC)ccc23)c2ccccc21 [JWH-153, 2-Methyl-1-pentyl-3-(6-methoxy-1-naphthoyl)indole] |  | 11 ± 1 nM |  | Ki [2]: 240 ± 24 nM; Ki [2, 7]: 250 ± 24 nM
21 | CCCn1cc(C(=O)c2cccc3ccc(CC)cc23)c2ccccc21 [JWH-235, 1-Propyl-3-(7-ethyl-1-naphthoyl)indole] | 2.7 | 123 ± 34 nM | 338 ± 34 nM | 
22 | CCCCCn1c(C)c(C(=O)c2c(OC)ccc3ccccc23)c2ccccc21 [JWH-268, 2-Methyl-1-pentyl-3-(2-methoxy-1-naphthoyl)indole] |  | 40 ± 1 nM |  | Ki [2, 7]: 1380 ± 193 nM

Row | SMILES | Ratio CB17CB2 ([1]; Table 2) | Ki [1, 3] | Ki [2, 4] | further results
23 | COc1cc(C(C)(C)C)cc2c1C1CC(C)=CCC1C(C)(C)O2 (stereo not shown) [Compound 6a, 1-Methoxy-3-(1′,1′-dimethylethyl)-Δ^8-THC] |  | 1870 ± 867 nM |  | Ratio CB1/CB2 ([1]; Table 1): 5.4; Ki [2, 11]: > 10000 nM
24 | CCCCCn1c(C)c(C(=O)c2ccc(CCC)c3ccccc23)c2ccccc21 [JWH-181, 2-Methyl-1-pentyl-3-(4-propyl-1-naphthoyl)indole] | 2.1 | 0.62 ± 0.04 nM |  | Ki [2, 6]: 1.3 ± 0.1 nM
25 | CCCn1c(C)c(C(=O)c2cccc3ccc(C)cc23)c2ccccc21 [JWH-046, 2-methyl-1-propyl-3-(7-methyl-1-naphthoyl)indole] | 21 |  |  | 
26 | CCCn1c(C)c(C(=O)c2c(OC)ccc3ccccc23)c2ccccc21 [JWH-266, 2-Methyl-1-propyl-3-(2-methoxy-1-naphthoyl)indole] |  |  |  | Ki [1, 8]: 455 ± 55 nM; Ki [2]: > 10000 nM; Ki ([2]; read-out: CB1 (receptor affinity), Table 3, mean ± SEM, 3-(alkoxy-1-naphthoyl)indoles, the same values as Ki in nM): > 10000 nM
27 | CCCn1cc(C(=O)c2cccc3ccccc23)c2ccccc21 [JWH-072] | 6.2 |  |  | 
28 | CCCc1ccc(C(=O)c2c(C)n(CCC)c3ccccc23)c2ccccc12 [JWH-189, 2-Methyl-1-propyl-3-(4-propyl-1-naphthoyl)indole] | 4.3 |  |  | Ki [1, 5]: 12 ± 0.8 nM; Ki [2, 6]: 52 ± 2 nM
29 | CCCCCn1c(C)c(C(=O)c2ccc(CC)c3ccccc23)c2ccccc21 [JWH-213, 2-Methyl-1-pentyl-3-(4-ethyl-1-naphthoyl)indole] | 3.6 |  |  | Ki [1, 5]: 0.42 ± 0.05 nM; Ki [2, 6]: 1.5 ± 0.2 nM
30 | CCCCCn1cc(C(=O)c2cccc3ccccc23)c2ccccc21 [JWH-018] | 3.3 |  |  | 
31 | CCCCCn1cc(C(=O)c2ccc(CCCC)c3ccccc23)c2ccccc21 [JWH-240, 1-Pentyl-3-(4-butyl-1-naphthoyl)indole] | 1.9 | 7.2 ± 13 nM | 14 ± 1 nM | 
32 | CCCCCn1c(C)c(C(=O)c2ccc(OCC)c3ccccc23)c2ccccc21 [JWH-260, 2-Methyl-1-pentyl-3-(4-ethoxy-1-naphthoyl)indole] |  | 25 ± 1.9 nM | 29 ± 0.4 nM | 
33 | CCC(C)(C)c1ccc2c(c1)OC(C)(C)[C@@H]1CC=C(CO)C[C@@H]21 [Compound 9b, 1-Deoxy-3-(1′,1′-dimethylpropyl)-11-hydroxy-Δ^8-THC] |  |  |  | selectivity for the CB2 receptor ([1]; CB2 over CB1 affinity): 25 fold; Ki [1, 8]: 5.6 ± 1.7 nM; Ratio CB1/CB2 ([1]; Table 1): 33; Ki [2]: 187 ± 23 nM
34 | CCCCCn1c(C)c(C(=O)c2ccc(C)c3ccccc23)c2ccccc21 [JWH-149] | 6.8 |  |  | Ki [1, 5]: 0.73 ± 0.03 nM
35 | CCCCCC(C)(C)c1cc(OC)c2c(c1)OC(C)(C)C1CC=C(CO)CC21 (stereo not shown) [Compound 11e, 1-Methoxy-3-(1′,1′-dimethylhexyl)-11-hydroxy-Δ^8-THC] |  | 1.4 nM and 1.2 nM | 15 nM and 14 nM | Ratio CB1/CB2 ([1]; Table 1): 11
36 | CCCn1cc(C(=O)c2ccc(OCC)c3ccccc23)c2ccccc21 [JWH-259, 1-Propyl-3-(4-ethoxy-1-naphthoyl)indole] |  | 74 ± 7 nM | 220 ± 29 nM | 
37 | CCCCCn1cc(C(=O)c2cccc3ccc(OC)cc23)c2ccccc21 [JWH-164, 1-Pentyl-3-(7-methoxy-1-naphthoyl)indole] |  | 6.9 ± 0.2 nM | 6.6 ± 0.7 nM | 
38 | CCCn1c(C)c(C(=O)c2ccc(OCC)c3ccccc23)c2ccccc21 [JWH-261, 2-Methyl-1-propyl-3-(4-ethoxy-1-naphthoyl)indole] |  | 221 ± 14 nM | 767 ± 105 nM | 
39 | CCCCCn1cc(C(=O)c2cccc3ccc(CC)cc23)c2ccccc21 [JWH-234, 1-Pentyl-3-(7-ethyl-1-naphthoyl)indole] | 2.2 | 3.8 ± 0.6 nM | 8.4 ± 1.8 nM | 
40 | CCCCC(C)(C)c1ccc2c(c1)OC(C)(C)C1CC=C(CO)CC21 (stereo not shown) [Compound 9d, 1-Deoxy-3-(1′,1′-dimethylpentyl)-11-hydroxy-Δ^8-THC] |  |  |  | Ki [1, 10]: 1.6 ± 0.03 nM; Ratio CB1/CB2 ([1]; Table 1): 5.5; Ki [2, 11]: 8.8 ± 1.4 nM
41 | CCCCc1ccc(C(=O)c2c(C)n(CCC)c3ccccc23)c2ccccc12 [JWH-241, 2-Methyl-1-propyl-3-(4-butyl-1-naphthoyl)indole] | 3.0 | 49 ± 7 nM | 147 ± 20 nM | 
42 | CCCCCn1cc(C(=O)c2ccc(C)c3ccccc23)c2ccccc21 [JWH-122] | 0.6 |  |  | Ki [1, 5]: 1.2 ± 1.2 nM
43 | CCCCCn1c(C)c(C(=O)c2cccc3ccc(C)cc23)c2ccccc21 [JWH-048, 2-Methyl-1-pentyl-3-(7-methyl-1-naphthoyl) indole] | 22 |  |  | 
